Consider 7 molecules from PubChem BioAssay AID1919015 (Molecular Pharmacology Branch, DTP, NCI, 2023).

Structures are written as SMILES. Several values for one entry are separate records, joined by “and”; a condition that tells them apart may be missing. Equal entries are not always repeated.

By IC50 is commonly meant the point on the concentration scale where inhibition reaches its midpoint. Usually viability, T/C stands for the result in the treated group divided by that in the control group, in per cent.

The experiment has as its system OVCAR-5 complex spheroids with HUVEC/MSC, viability, % test/control. Nature of the experiment: Anticancer human tumor OVCAR-5 cell line growth inhibition [AhR].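 On all read-outs here: spheroids exposed to compounds for 7 days.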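 On viability, T/C: 100% = DMSO vehicle control wells.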 Conditions: for viability, T/C: stronger effect = lower value. The text has this:
Multicellular complex tumor spheroid response to aryl hydrocarbon receptor antagonists in combination with a variety of drugs and investigational agents in selected tumor cell lines
The current study was undertaken to assess response to aryl hydrocarbon receptor antagonists in combination with standard-of-care drugs and investigational agents in solid tumor complex spheroid models. Complex spheroids include a stromal component modeled by human endothelial cells (HUVEC) and fibroblasts modeled by human mesenchymal stem cells (MSCs). The concentration ranges selected for each drug and investigational agent were based upon clinically achievable concentrations if the clinical Cmax of the agent was known.
Compounds. The drugs and investigational agents: BAY 2416964 (NSC825713), GNF351 (NSC835774), CH-223191 (NSC835775), CPI-455 (NSC825282), aza-TdCyd (NSC777586), decitabine (NSC127716), belinostat (NSC758774), entinostat (NSC756642), pevonedistat (NSC761192), tazemetostat (NSC777109), talazoparib (NSC765396), olaparib (NSC753686), selinexor (NSC780203), nedisertib (M3814, NSC802822), bortezomib (NSC756655), venetoclax (NSC766270), doxorubicin (NSC123127), elimusertib (BAY189344, NSC800525), ceralasertib (AZD6738, NSC777638), TAK-243 (NSC785004), alisertib (NSC759677), etoposide (NSC141540), topotecan (NSC609699), eribulin (NSC707389), gemcitabine (NSC613327), carboplatin (NSC241240), cisplatin (NSC119875), and SN-38 (NSC673596) were obtained from the National Cancer Institute (NCI) Developmental Therapeutics Program Chemical Repository (32). The FDA-approved anticancer drug set is available from the Developmental Therapeutics Program at https://dtp.cancer.gov/organization/dscb/obtaining/available plates.htm. […] The stock solutions were prepared in dimethyl sulfoxide (DMSO, Sigma-Aldrich, St. Louis, MO, cat. D2650), except for the platinum compounds which were prepared in saline (Quality Biological, Gaithersburg, MD, cat. 114-055-101), at 800-fold the tested concentration and stored at -70 degrees C prior to their use. All drugs and investigational agents were tested over a range starting from a high concentration at or near the clinical Cmax and decreasing in half-log increments. If the clinical Cmax for an agent had not been determined, the highest concentration tested was 10 microM (Table 1).
Cell Culture. All cells were maintained in an incubator at 37 degrees C and 5% CO2 with 95% humidity. The PDC lines were cultured according to standard operating procedures established by the NCI PDMR (https://pdmr.cancer.gov). Briefly, all PDCs were thawed and cultured in Matrigel-coated flasks prepared with a working solution of 1X Ham's F-12 nutrient mix, without supplementation (Invitrogen, Waltham, MA, cat. 11765054), 100 U/mL penicillin-streptomycin (Invitrogen, cat. 15140122), and 2.5% Matrigel (Corning Inc., Corning, NY, cat. 354248) for the first three passages. All PDCs were cultured in complete DMEM/F-12 media containing advanced DMEM/F-12 (Invitrogen, cat. 12634028), 4.9% defined fetal bovine serum, heat inactivated (HyClone Laboratories Inc., Logan, UT, cat. SH30070.03HI), 389 ng/mL hydrocortisone (Sigma-Aldrich, cat. H4001), 9.7 ng/mL human EGF recombinant protein (Invitrogen, cat. PHG0313), 23.4 microg/mL adenine (Sigma-Aldrich, cat. A2786), 97.3 U/mL penicillin-streptomycin (Invitrogen, cat. 15140122), 1.9 mM L-glutamine (Invitrogen, cat. 25030081), and 9.7 microM Y-27632 dihydrochloride (Tocris Bioscience, Bristol, United Kingdom, cat. 1254). The PDCs were cultured in complete DMEM/F12 media without 10 microM Y-27632 dihydrochloride for at least two passages prior to the screen. The established cell lines NCI-H1341 and […] were cultured in DMEM/F-12, HEPES (Invitrogen, cat. 11330032), 5% defined fetal bovine serum (HyClone Laboratories Inc., cat. SH30070.03), ITS premix universal culture supplement [insulin (5 microg/mL), transferrin (5 microg/mL), and selenious acid (5 ng/mL)] […]

[1] abbreviates: curve of first compound, second compound 0.1 µM.
The mark [2] stands for this setting: curve of first compound, second compound 0.316 µM.
Setting [3] is: curve of first compound, second compound 1 µM.
[4] abbreviates: curve of first compound, second compound 3.16 µM.
The mark [5] stands for this setting: curve of first compound, second compound 10 µM.
The mark [6] stands for this setting: second compound 0.1 µM, first compound 0.0316 µM.
Setting [7] is: second compound 0.1 µM, first compound 0.1 µM.
[8] abbreviates: second compound 0.1 µM, first compound 0.316 µM.
The mark [9] stands for this setting: second compound 0.1 µM, first compound 1 µM.
The mark [10] stands for this setting: second compound 0.1 µM, first compound 3.16 µM.
The mark [11] stands for this setting: second compound 0.1 µM, first compound 10 µM.
Setting [12] is: second compound 0.316 µM, first compound 0.0316 µM.
Setting [13] is: second compound 0.316 µM, first compound 0.1 µM.
Setting [14] is: second compound 0.316 µM, first compound 0.316 µM.
The mark [15] stands for this setting: second compound 0.316 µM, first compound 1 µM.
[16] abbreviates: second compound 0.316 µM, first compound 3.16 µM.
Where [17] appears, read: second compound 0.316 µM, first compound 10 µM.
Setting [18] is: second compound 1 µM, first compound 0.0316 µM.
Setting [19] is: second compound 1 µM, first compound 0.1 µM.
Where [20] appears, read: second compound 1 µM, first compound 0.316 µM.
Where [21] appears, read: second compound 1 µM, first compound 1 µM.
The mark [22] stands for this setting: second compound 1 µM, first compound 3.16 µM.
The mark [23] stands for this setting: second compound 1 µM, first compound 10 µM.
[24] abbreviates: second compound 3.16 µM, first compound 0.0316 µM.
Where [25] appears, read: second compound 3.16 µM, first compound 0.1 µM.
Setting [26] is: second compound 3.16 µM, first compound 0.316 µM.
[27] abbreviates: second compound 3.16 µM, first compound 1 µM.
Setting [28] is: second compound 3.16 µM, first compound 3.16 µM.
Setting [29] is: second compound 3.16 µM, first compound 10 µM.
[30] abbreviates: second compound 10 µM, first compound 0.0316 µM.
[31] abbreviates: second compound 10 µM, first compound 0.1 µM.
[32] abbreviates: second compound 10 µM, first compound 0.316 µM.
Where [33] appears, read: second compound 10 µM, first compound 1 µM.
Setting [34] is: second compound 10 µM, first compound 3.16 µM.
The mark [35] stands for this setting: second compound 10 µM, first compound 10 µM.

As for `Nc1ccccc1NC(=O)c1ccc(CNC(=O)OCc2cccnc2)cc1` + Cc1cncc(-c2nc(NCCc3c[nH]c4ccccc34)c3ncn(C(C)C)c3n2)c1, the IC50 by setting is: under setting [1], 0.834 µM; under setting [2], 0.731 µM; under setting [3], 0.724 µM; under setting [4], 0.549 µM; under setting [5], under 0.0316 µM. Further, the viability, T/C runs as follows: under setting [6], 86%; under setting [7], 84.7%; under setting [8], 69.5%; under setting [9], 47.4%; under setting [10], 19.9%; under setting [11], 9.54%. Also, the viability, T/C was 86% under setting [12]; 79.5% under setting [13]; 66.8% under setting [14]; 44.3% under setting [15]; 20.1% under setting [16]; 7.96% under setting [17]. For the same molecule, the viability, T/C is 80.4% under setting [18]; 77.2% under setting [19]; 68.8% under setting [20]; 42.8% under setting [21]; 16.6% under setting [22]; 7.92% under setting [23]. Moreover, the viability, T/C runs as follows: under setting [24], 71.2%; under setting [25], 71.4%; under setting [26], 62.7%; under setting [27], 36%; under setting [28], 13.5%; under setting [29], 6.41%. Further, the viability, T/C is, setting by setting: under setting [30], 10.4%; under setting [31], 10.3%; under setting [32], 13.1%; under setting [33], 14.3%; under setting [34], 2.83%; under setting [35], 0.51%.
On to `Cc1cncc(-c2nc(NCCc3c[nH]c4ccccc34)c3ncn(C(C)C)c3n2)c1`, for which the viability, T/C is 98.8% [middle of 20 runs] (compound 0.1 µM), 97.6% [middle of 19 runs] (compound 0.316 µM), 92.7% [middle of 20 runs] (compound 1 µM) and 78.4% [middle of 20 runs] (compound 3.16 µM). For the same molecule, the IC50 (compound alone, run of 08/16/2022) is 5.52 µM [middle of 22 runs].
For the molecule `CCN(c1cc(-c2ccc(CN3CCOCC3)cc2)cc(C(=O)NCc2c(C)cc(C)[nH]c2=O)c1C)C1CCOCC1`, the viability, T/C by setting is: (compound 0.00949 µM) 104% (2×) and 101%; (compound 0.03 µM) 105% and 98.5% and 106%; (compound 0.0949 µM) 99.6% and 99.7% and 103%; (compound 0.3 µM) 101% and 100% and 105%; (compound 0.949 µM) 99.6% and 96.8% and 104%; (compound 3 µM) 101% and 96.4% and 104%. Moreover, under “curve of compound”, the IC50 was over 3 µM.
For `CC[C@@]1(O)C(=O)OCc2c1cc1n(c2=O)Cc2cc3c(CN(C)C)c(O)ccc3nc2-1`, the viability, T/C by setting is: (compound 0.000316 µM) 102% and 99.2% and 104%; (compound 0.001 µM) 101% and 98.1% and 106%; (compound 0.00316 µM) 97.5% and 89.9% and 98.5%; (compound 0.01 µM) 88% and 79.8% and 89.2%; (compound 0.0316 µM) 57% and 37.1% and 61.3%; (compound 0.1 µM) 50.6% and 40.1% and 46.5%. For the same molecule, where the note is “curve of compound”, the IC50 is > 0.1 µM and 0.023 µM and 0.0759 µM.
As for `Cc1ccccc1N=Nc1ccc(NC(=O)c2ccnn2C)c(C)c1`, the viability, T/C is, setting by setting: (compound 0.1 µM) 103% [middle of 20 runs]; (compound 0.316 µM) 108% [middle of 20 runs]; (compound 1 µM) 110% [middle of 20 runs]; (compound 3.16 µM) 113% [middle of 20 runs]; (compound 10 µM) 105% [middle of 20 runs]. Moreover, the IC50 (compound alone, run of 08/22/2022) is over 10 µM.
`O=C(C=Cc1cccc(S(=O)(=O)Nc2ccccc2)c1)NO`: the viability, T/C was 94.1% and 97.8% and 90.4% (compound 0.0316 µM); 93.2% and 88% and 88.8% (compound 0.1 µM); 76.5% and 73.4% and 70.6% (compound 0.316 µM); 59.4% and 55.6% and 52.8% (compound 1 µM); 30.6% and 24.4% and 27.7% (compound 3.16 µM); 7.78% and 5.16% and 5.95% (compound 10 µM). Moreover, the IC50 (curve of compound) is 1.41 µM and 1.12 µM and 1.11 µM.
For the molecule `COc1cc(C2c3cc4c(cc3C(OC3OC5COC(C)OC5C(O)C3O)C3COC(=O)C23)OCO4)cc(OC)c1O` (configuration not stated) + Cc1cncc(-c2nc(NCCc3c[nH]c4ccccc34)c3ncn(C(C)C)c3n2)c1, the IC50 under setting [1] was found to be 2.68 µM; the IC50 under setting [2] was 2.94 µM; the IC50 under setting [3] stood at 2.36 µM; the IC50 under setting [4] came out at 0.909 µM; the IC50 under setting [5] was under 0.0316 µM. Also, the viability, T/C under setting [6] was 97.2%; the viability, T/C under setting [7] was 97.1%; the viability, T/C under setting [8] was 90.8%; the viability, T/C under setting [9] is 68.8%; the viability, T/C under setting [10] was 47.8%; the viability, T/C under setting [11] is 36.1%. In addition, the viability, T/C by setting is: under setting [12], 97.1%; under setting [13], 93.3%; under setting [14], 86%; under setting [15], 67.7%; under setting [16], 49%; under setting [17], 37.6%. The viability, T/C reads like this: under setting [18], 90%; under setting [19], 91.6%; under setting [20], 79.7%; under setting [21], 62.9%; under setting [22], 46.1%; under setting [23], 37.4%. For the same molecule, the viability, T/C is 79.8% under setting [24]; 80.1% under setting [25]; 67.9% under setting [26]; 48.1% under setting [27]; 37.6% under setting [28]; 33% under setting [29]. Also, the viability, T/C is, setting by setting: under setting [30], 9.11%; under setting [31], 9.43%; under setting [32], 7.81%; under setting [33], 4.62%; under setting [34], 3.56%; under setting [35], 7.82%.
